PubChem BioAssay (NCI)
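Cells were grown in 96-well plates and exposed to each compound for 48 hours at five concentrations; endpoints were interpolated linearly between bracketing concentrations, or set to the highest concentration if not reached. Here, GI50 denotes the concentration required for 50% inhibition of growth. TGI denotes the concentration required for complete inhibition of growth.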

Columns and labels:
Assay in all cases: inhibition of tumour cell growth, NCI panel, 48 h
CCRF-CEM leukemia = tested on: CCRF-CEM leukemia
NCI-H522 lung = tested on: NCI-H522 lung
COLO 205 colon = tested on: COLO 205 colon
SNB-75 CNS = tested on: SNB-75 CNS
U251 CNS = tested on: U251 CNS
A498 renal = tested on: A498 renal
A549 NSCLC = tested on: A549 NSCLC
OVCAR-8 ovarian = tested on: OVCAR-8 ovarian
MOLT-4 leukemia = tested on: MOLT-4 leukemia
SF-295 CNS = tested on: SF-295 CNS
HCT-116 colon = tested on: HCT-116 colon
KM12 colon = tested on: KM12 colon
TK-10 renal = tested on: TK-10 renal
UACC-62 melanoma = tested on: UACC-62 melanoma
MCF7 breast = tested on: MCF7 breast
MDA-MB-435 = tested on: MDA-MB-435
EKVX NSCLC = tested on: EKVX NSCLC
PC-3 prostate = tested on: PC-3 prostate
UACC-257 melanoma = tested on: UACC-257 melanoma
IGROV1 ovarian = tested on: IGROV1 ovarian
OVCAR-4 ovarian = tested on: OVCAR-4 ovarian
SK-MEL-5 melanoma = tested on: SK-MEL-5 melanoma
SK-MEL-28 melanoma = tested on: SK-MEL-28 melanoma
SK-MEL-2 melanoma = tested on: SK-MEL-2 melanoma
MALME-3M melanoma = tested on: MALME-3M melanoma
SN12C renal = tested on: SN12C renal
SR leukemia = tested on: SR leukemia
NCI/ADR-RES ovarian = tested on: NCI/ADR-RES ovarian
NCI-H226 lung = tested on: NCI-H226 lung
MDA-MB-231 breast = tested on: MDA-MB-231 breast
HT29 colon = tested on: HT29 colon
SW-620 colon = tested on: SW-620 colon
RXF 393 renal = tested on: RXF 393 renal
SK-OV-3 ovarian = tested on: SK-OV-3 ovarian
HCT-15 colon = tested on: HCT-15 colon
K-562 leukemia = tested on: K-562 leukemia
HOP-62 NSCLC = tested on: HOP-62 NSCLC
T-47D breast = tested on: T-47D breast
SNB-19 CNS = tested on: SNB-19 CNS
OVCAR-3 ovarian = tested on: OVCAR-3 ovarian
CAKI-1 renal = tested on: CAKI-1 renal
DU-145 prostate = tested on: DU-145 prostate
NCI-H460 lung = tested on: NCI-H460 lung
LOX IMVI melanoma = tested on: LOX IMVI melanoma
UO-31 renal = tested on: UO-31 renal
OVCAR-5 ovarian = tested on: OVCAR-5 ovarian
BT-549 breast = tested on: BT-549 breast
NCI-H23 lung = tested on: NCI-H23 lung
HCC-2998 colon = tested on: HCC-2998 colon
HOP-92 NSCLC = tested on: HOP-92 NSCLC
HL-60(TB) leukemia = tested on: HL-60(TB) leukemia
ACHN renal = tested on: ACHN renal
SF-539 CNS = tested on: SF-539 CNS
HS 578T breast = tested on: HS 578T breast
SF-268 CNS = tested on: SF-268 CNS
M14 melanoma = tested on: M14 melanoma
786-0 renal = tested on: 786-0 renal
RPMI-8226 leukemia = tested on: RPMI-8226 leukemia

## O=C(Nc1n[nH]c2nc(-c3ccco3)c(Br)cc12)C1CC1
CCRF-CEM leukemia
  GI50: > 21.7 µM
  TGI: > 25 µM
NCI-H522 lung
  GI50: > 25 µM
  TGI: > 25 µM
COLO 205 colon
  GI50: > 25 µM
  TGI: > 25 µM
SNB-75 CNS
  GI50: > 9.08 µM
  TGI: > 25 µM
U251 CNS
  GI50: > 25 µM
  TGI: > 25 µM
A498 renal
  GI50: > 12.5 µM
  TGI: > 25 µM
A549 NSCLC
  GI50: > 25 µM
  TGI: > 25 µM
OVCAR-8 ovarian
  GI50: > 25 µM
  TGI: > 25 µM
MOLT-4 leukemia
  GI50: > 25 µM
  TGI: > 25 µM
SF-295 CNS
  GI50: > 25 µM
  TGI: > 25 µM
HCT-116 colon
  GI50: > 25 µM
  TGI: > 25 µM
KM12 colon
  GI50: > 25 µM
  TGI: > 25 µM
TK-10 renal
  GI50: > 25 µM
  TGI: > 25 µM
UACC-62 melanoma
  GI50: > 25 µM
  TGI: > 25 µM
MCF7 breast
  GI50: > 7.12 µM
  TGI: > 25 µM
MDA-MB-435
  GI50: > 25 µM
  TGI: > 25 µM
EKVX NSCLC
  GI50: > 25 µM
  TGI: > 25 µM
PC-3 prostate
  GI50: > 25 µM
  TGI: > 25 µM
UACC-257 melanoma
  GI50: > 25 µM
  TGI: > 25 µM
IGROV1 ovarian
  GI50: > 25 µM
  TGI: > 25 µM
OVCAR-4 ovarian
  GI50: > 25 µM
  TGI: > 25 µM
SK-MEL-5 melanoma
  GI50: > 16.4 µM
  TGI: > 25 µM
SK-MEL-28 melanoma
  GI50: > 25 µM
  TGI: > 25 µM
SK-MEL-2 melanoma
  GI50: > 25 µM
  TGI: > 25 µM
MALME-3M melanoma
  GI50: > 25 µM
  TGI: > 25 µM
SN12C renal
  GI50: > 25 µM
  TGI: > 25 µM
SR leukemia
  GI50: > 25 µM
  TGI: > 25 µM
NCI/ADR-RES ovarian
  GI50: > 25 µM
  TGI: > 25 µM
NCI-H226 lung
  GI50: > 25 µM
  TGI: > 25 µM
MDA-MB-231 breast
  GI50: > 25 µM
  TGI: > 25 µM
HT29 colon
  GI50: > 25 µM
  TGI: > 25 µM
SW-620 colon
  GI50: > 25 µM
  TGI: > 25 µM
RXF 393 renal
  GI50: 4.89 µM
  TGI: > 25 µM
SK-OV-3 ovarian
  GI50: 15.9 µM
  TGI: > 25 µM
HCT-15 colon
  GI50: > 25 µM
  TGI: > 25 µM
K-562 leukemia
  GI50: > 25 µM
  TGI: > 25 µM
HOP-62 NSCLC
  GI50: > 25 µM
  TGI: > 25 µM
T-47D breast
  GI50: > 25 µM
  TGI: > 25 µM
SNB-19 CNS
  GI50: > 25 µM
  TGI: > 25 µM
OVCAR-3 ovarian
  GI50: > 25 µM
  TGI: > 25 µM
CAKI-1 renal
  GI50: > 25 µM
  TGI: > 25 µM
DU-145 prostate
  GI50: > 25 µM
  TGI: > 25 µM
NCI-H460 lung
  GI50: > 25 µM
  TGI: > 25 µM
LOX IMVI melanoma
  GI50: > 21.7 µM
  TGI: > 25 µM
UO-31 renal
  GI50: > 25 µM
  TGI: > 25 µM
OVCAR-5 ovarian
  GI50: > 25 µM
  TGI: > 25 µM
BT-549 breast
  GI50: > 25 µM
  TGI: > 25 µM
NCI-H23 lung
  GI50: > 25 µM
  TGI: > 25 µM
HCC-2998 colon
  GI50: > 25 µM
  TGI: > 25 µM
HOP-92 NSCLC
  GI50: > 25 µM
  TGI: > 25 µM
HL-60(TB) leukemia
  GI50: > 25 µM
  TGI: > 25 µM
ACHN renal
  GI50: > 25 µM
  TGI: > 25 µM
SF-539 CNS
  GI50: > 25 µM
  TGI: > 25 µM
HS 578T breast
  GI50: > 25 µM
  TGI: > 25 µM
SF-268 CNS
  GI50: > 25 µM
  TGI: > 25 µM
M14 melanoma
  GI50: > 25 µM
  TGI: > 25 µM
786-0 renal
  GI50: > 25 µM
  TGI: > 25 µM
RPMI-8226 leukemia
  GI50: > 25 µM
  TGI: > 25 µM
